Assay results as given in patent publication US20260166076A1, “PHARMACEUTICAL COMPOSITION CONTAINING ZINC POLYPHOSPHATE” (Kamui Pharma, Inc., priority 2022, published 2026).
Marks after values point to notes of the source that are not given here.

What was measured:
[1] = tested on: DSS acute enteritis model; assay: DSS acute enteritis model (Example 6): intestinal length and histopathological evaluation; format: in vivo, BALB/c mice; settings: DSS mice; polyphosphate 5 μg/head or TAC 60 μg/head oral daily day 0-7; day 8
Experimental: (§1) Dextran sodium sulfate (DSS) (MP-BioMedicals; 160110) was dissolved in distilled water to prepare 2% DSS solution. Chemical-induced enteritis was triggered in BALB/c mice (Charles River, Japan) by administering the solution as drinking water ad libitum for 5 days, and acute enteritis was developed while distilled water was supplied as drinking water ad libitum from day 6 to day 8 (necropsy day). Each polyphosphate (PPA-Na, PPA-Ca, PPA-Zn, or PPA-Mg; 5 μg/head each) or tacrolimus (TAC; 60 μg/head; Sigma CORPORATION, PHR1809) was orally administered daily from day 0 to day 7, and on day 8, the mice were subjected to various tests.
(§2) Mice were euthanized by cervical dislocation under isoflurane anesthesia, and the entire length of the colon was excised after opening the abdomen with scissors. The length of the excised colon was measured on a scale (FIG. 5).
(§3) Each colon tissue was Swiss rolled (Moolenbeek C, Lab Anim. 1981) and fixed in 10% formalin according to the procedure instructed by Moolenbeek C et al. The tissue was paraffin-embedded, thinly sliced to 4 μm, and stained with hematoxylin & eosin as a prepared specimen. The tissue was pathologically evaluated by inflammatory tissue scoring (Berg DJ, J Clin Invest, 1996) as described by Berg et al. The improvement rate (%) was calculated according to the following formula (Table 4).

[2] = tested on: inflammatory cytokines (TNFα, IL1β, IL6, IFNγ); assay: DSS acute enteritis model (Example 6): RT-PCR of inflammatory cytokines in intestinal mucosa; format: in vivo, BALB/c mice; settings: polyphosphate 5 μg/head or TAC 60 μg/head oral daily day 0-7, day 8
Experimental: as §1
(§4) The colon was cut and open in half using scissors, and the intestinal mucosa was detached with a slide glass. Intestinal mucosal tissue was soaked in 0.5 ml TRIzol (ThermoFisher Scientific K.K.), frozen in liquid nitrogen, and stored at −80° C. After thawing each stored sample at room temperature, RNA was recovered according to the procedure instructed by ThermoFisher Scientific K.K. The recovered total RNA was purified using an RNeasy Mini kit (Qiagen) and reverse-transcribed using a High-Capacity cDNA Reverse Transcription Kit (ThermoFisher Scientific K.K.). A PCR reaction was performed, using the recovered cDNA as a template, with EagleTaq Universal Master Mix with ROX (Roche). The primers (TaqMan Gene Expression Assays; ThermoFisher Scientific K.K.) used in the reaction are as follows. IL1β: Mm01336189, TNFα: Mm00443258, IL6: Mn00446190, IFNγ: Mm99999071. Changes in each gene expression level were standardized based on the expression level of Eukaryotic 18S rRNA Endogenous Control (ThermoFisher Scientific K.K.). Spectrum data was acquired using the Applied Biosystems 7300 Real Time PCR system.

[3] = tested on: DSS acute enteritis model; assay: DSS acute enteritis model (Example 9, dose examination): intestinal length and histopathological evaluation; format: in vivo, BALB/c mice; settings: DSS mice; 20 μg/head oral daily day 5-11; day 12
Experimental: as §2, §3
(§5) Dextran sodium sulfate (DSS) (MP-BioMedicals; 160110) was dissolved in distilled water to prepare 2% DSS solution. Chemical-induced enteritis was triggered in BALB/c mice (Charles River, Japan) by administering the solution as drinking water ad libitum for 5 days, and acute enteritis was developed while distilled water was supplied as drinking water ad libitum from day 5 to day 12 (necropsy day). Zinc polyphosphate PPA-Zn (1, 5, 20, or 50 μg/head each) or tacrolimus (20 μg/head) was orally administered daily from day 5 to day 11, and on day 12, the mice were subjected to various tests (FIG. 8).
The intestinal length after zinc polyphosphate treatment was measured according to Example 6, and the improvement rate was calculated (FIG. 8).
Each tissue was pathologically evaluated by inflammatory tissue scoring according to Example 6, and the improvement rate was calculated (Table 6).

[4] = tested on: inflammatory cytokines (IL1β, TNFα, IL6, IFNγ, IL17A); assay: DSS acute enteritis model (Example 9, dose examination): RT-PCR of cytokine mRNA; format: in vivo, BALB/c mice; settings: 20 μg/head oral daily day 5-11, day 12
Experimental: as §4, §5
(§6) The mRNA expression levels of various cytokines (IL1β, TNFα, IL6, IFNγ, and IL17A) were analyzed according to Example 6, and the improvement rate was calculated (Table 6). The primers (TaqMan Gene Expression Assays; ThermoFisher Scientific K.K.) used in the reaction are as follows. IL1β: Mm01336189, TNFα: Mm00443258, IL6: Mn00446190, IFNγ: Mm99999071, IL17A: Mm00439618.

[5] = tested on: DSS acute enteritis model; assay: DSS acute enteritis model (Example 10, after long-term storage): intestinal length and histopathological evaluation; format: in vivo; settings: DSS mice, day 12; PPA-Zn initial (not stored) or TAC
Experimental: as §2, §3
(§7) Zinc polyphosphate Test 15-2 was stored under a condition at 60° C. and 75% RH for 8 weeks according to Example 2. The zinc polyphosphate Test 15-2 after storage was used to evaluate efficacy in the DSS acute enteritis model, measure the intestinal length, perform RT-PCR, and evaluate the histopathological severity according to Example 6 (Table 7, FIG. 9).
(§8) DDS acute enteritis model mice were generated according to Example 6 and subjected to various tests on day 12 (FIG. 9).
The intestinal length after zinc polyphosphate treatment was measured according to Example 6, and the improvement rate was calculated (FIG. 9).
Each tissue was pathologically evaluated by inflammatory tissue scoring according to Example 6, and the improvement rate was calculated (Table 7).

[6] = tested on: inflammatory cytokines (IL1β, TNFα, IL6, IFNγ, IL17A); assay: DSS acute enteritis model (Example 10, after long-term storage): RT-PCR of cytokine mRNA; format: in vivo, mice; settings: day 12, PPA-Zn initial (not stored) or TAC
Experimental: as §4, §7, §8
as §6, with “7).” for “6).”

[7] = relative value when control is set to 1

## C=CC[C@@H]1/C=C(\C)C[C@H](C)C[C@H](OC)[C@H]2O[C@@](O)(C(=O)C(=O)N3CCCC[C@H]3C(=O)O[C@H](/C(C)=C/[C@@H]3CC[C@@H](O)[C@H](OC)C3)[C@H](C)[C@@H](O)CC1=O)[C@H](C)C[C@@H]2OC [TAC, tacrolimus]
[1]
  Improvement rate Histological severity: 40% *
  Improvement rate Intestinal length: 43% *
  Macro findings Intestinal length: 109.8 ± 6.5 mm
  Micro findings Histological severity: 1.8 ± 0.4
[2]; DSS mice
  Improvement rate IFNγ: 98%
  Improvement rate IL1β: 88% *
  Improvement rate IL6: 94%
  Improvement rate TNFα: 85% *
[2]; [7]
  Changes in inflammatory cytokines IFNγ: 2 ± 0.9
  Changes in inflammatory cytokines IL1β: 6.7 ± 6.3
  Changes in inflammatory cytokines IL6: 5.1 ± 2.3
  Changes in inflammatory cytokines TNFα: 2.2 ± 0.5
[3]
  Improvement rate Histological severity: 27%
  Improvement rate Intestinal length: 9%
  Macro findings Intestinal length: 99.4 ± 12.6 mm
  Micro findings Histological sovority: 2.4 ± 1.3
[4]; DSS mice
  Improvement rate IFNγ: 63%
  Improvement rate IL1β: 31%
  Improvement rate IL6: 73%
  Improvement rate IL17A: 66%
  Improvement rate TNFα: 39%
[4]; [7]
  Changes in inflammatory cytokines IFNγ: 1.5 ± 0.8
  Changes in inflammatory cytokines IL1β: 85.9 ± 117.1
  Changes in inflammatory cytokines IL6: 27.2 ± 52.4
  Changes in inflammatory cytokines IL17A: 53.9 ± 77
  Changes in inflammatory cytokines TNFα: 5.4 ± 4.5
[5]
  Improvement rate Histological severity: 42%
  Improvement rate Intestinal length: 12%
  Macro findings Intestinal length: 89 ± 4.5 mm
  Micro findings Histological severity: 2.3 ± 0.5
[6]; DSS mice
  Improvement rate IFNγ: 79%
  Improvement rate IL1β: 44%
  Improvement rate IL6: 76%
  Improvement rate IL17A: 80%
  Improvement rate TNFα: 50%
[6]; [7]
  Changes in inflammatory cytokines IFNγ: 12.1 ± 27.7
  Changes in inflammatory cytokines IL1β: 201.1 ± 211.7
  Changes in inflammatory cytokines IL6: 49.5 ± 55.5
  Changes in inflammatory cytokines IL17A: 192.9 ± 321.9
  Changes in inflammatory cytokines TNFα: 8.2 ± 5
